A short description of this experiment: Concentration required for cleaving the supercoiled DNA at pH 8. It counts as functional.

As for `C[n+]1c(C#Cc2ccccc2)n(CC#Cc2ccccc2)c2ccccc21`, the Concentration was 100 µM.

For the origin of these results see ChEMBL document CHEMBL1132807, “Synthesis of a heterocyclic aza-enediyne and its DNA-cleavage properties” (Bioorg Med Chem Lett, 2000).
